This note sets out measurements from patent US4208417A, “Indole derivatives and their use as anxiolytics” (Pharmindustrie, priority 1978, dated 1980).

Each structure is given as a SMILES string. Read-outs that look alike come from different tables or passages of the source.

Series [1] deals with benzodiazepine receptor (^3 H-diazepam binding sites, rat brain membranes).
Experimental: This efficacy is measured by Ki values in micro moles calculated by using the equation:
C=the concentration of ^3 H-diazepam,
KD =the affinity constant=2,74 μM, and
IC50 =the concentration causing 50% inhibition of ^3 H-diazepam binding.
Series [2] can be described thus: Acute toxicity in mice (LD50). It counts as in vivo. The settings on record: mouse, in vivo. An excerpt:
(§1) The following Table 2 contains values already given in U.S. Pat. No. 4,064,255 and supplies additional values obtained according to the same procedure.

Another series deals with Mice. Description: Acute toxicity in mice (LD50). It counts as in vivo.
From the text: as §1

Setting [3] is: iv, I.V., read-out: Acute toxicity LD50, I.V.
The mark [4] stands for this setting: po, orally, read-out: Acute toxicity LD50, orally.

By Ki is commonly meant a dissociation constant, usually derived from enzyme kinetics or from competition with a known ligand. The term LD50 denotes the dose at which mortality reaches 50%. Consider `O=C(CC1CCNCC1)c1c[nH]c2ccccc12` [Example 1, Indolyl-3-(piperidyl-4-methyl)ketone], for which the Ki in series [1] is 43 µM. Also, the figures for the LD50 in series [2] (setting [3]) and in series [2] (setting [4]) were 47 mg/kg and 300 to 900 mg/kg, respectively.
In the same order, the values of `COc1ccc2[nH]cc(CCC3CCNCC3)c2c1` [Example 8, [(Methoxy-5 indolyl-3)-2 ethyl]-4 piperidine] are 40 µM, 41 mg/kg and 675 mg/kg.
Regarding `Cn1cc(CCC2CCNCC2)c2ccccc21` [Example 9, [(Methyl-1 indolyl-3)-2 ethyl]-4 piperidine], in series [1], the Ki stood at 90 µM. In addition, in the series with Mice, the “Acute toxicity LD50, I.V.” value was determined as 44 mg/kg and the “Acute toxicity LD50, orally” value was found to be 225 mg/kg.
On the same counts, the results for `c1ccc2c(CCC3CCNCC3)c[nH]c2c1` [Example 10, [(Indolyl-3)-2 ethyl]-4 piperidine] are 64 µM, 60 mg/kg and 600 mg/kg.
On the same counts, the results for `c1ccc2c(CC3CCNCC3)c[nH]c2c1` [Example 11, (Indolyl-3 methyl)-4 piperidine] are 90 µM, 57 mg/kg and 225 mg/kg.
For the compound `Clc1ccc2[nH]cc(CCC3CCNCC3)c2c1` [Example 12, [(Chloro-5 indolyl-3)-2 ethyl]-4 piperidine], the affinity in series [1] corresponds to a Ki of 37 µM. For the same compound, the values for the median lethal dose (LD50) in series [2] (setting [3]) and in series [2] (setting [4]) were 85 mg/kg and 625 mg/kg, respectively.
In the same order, the values of `c1ccc2c(CCCC3CCNCC3)c[nH]c2c1` [Example 13, [(Indolyl-3)-3 propyl]-4 piperidine] are 70 µM, 29 mg/kg and 600 mg/kg.
On the same counts, the results for `c1ccc(Cn2cc(CCC3CCNCC3)c3ccccc32)cc1` [Example 14, [(Benzyl-1 indolyl-3)-2 ethyl]-4 piperidine] are 33 µM, 33 mg/kg and 525 mg/kg.
